Reference: US10954258B2, “STAT3 dimerization inhibitors” (H. LEE MOFFITT CANCER CENTER AND RESEARCH INSTITUTE, INC., priority 2012, dated 2021)

What was measured:
Assay type in all cases: cell-based, human
H460 cells = assay: wound healing (migration) assay, H460; details: low levels of P-STAT3
[1] = system: STAT3-DNA binding activity in MDA-MB-468 and A-549 cells; assay: STAT3-DNA binding filter plate assay on nuclear extracts; details: 1, 2 or 4 hours
Protocol: Nuclear extract preparation was carried out as described in Yu, et al., Science 1995; 269(5220):81-83. The STAT3-DNA binding filter plate assay was performed following the manual of the filter plate assay kit (Signosis, Sunnyvale, Calif.), as described for NFkB (Ying, et al., Blood 2011; 117(4):1301-1307). The TF Binding buffer was mixed with the STAT3 probe (biotin labeled STAT3 DNA binding sequence) and nuclear extract and incubated at 16° C. for 30 minutes to form the STAT3-DNA complex. The STAT3-DNA complex was then separated from free probe by using a filter plate. After several steps of binding and washing, bound STAT3 probe is retained on the filter in the corresponding well of Filer Plate and the free DNA probe is removed. The bound pre-labeled STAT3 probe was then eluted from the filter plate by centrifuge with elution buffer. Eluted probes were then hybridized into 96-well Hybridization Plate for quantitative analysis. The captured STAT3 probe was further detected by conjugation with streptavidin-HRP. The chemiluminescence of each well was detected by 2104 EnVisionR Multilabel Reader of PerkinElmer (Pekin Elmer, Waltham, Mass., USA) within 5 minutes after mixture with substrates. […]

[2] = system: MDA-MB-468 cells transiently transfected with vector or STAT3C; assay: STAT3-C rescue: western blotting, MTT, migration and invasion
Excerpt: To this end, MDA-MB-468 were transfected cells with STAT3-C, then treated the cells with S3I-1757 and processed the cells for western blotting, cell growth, migration and invasion.

[3] = system: SRE promoter-renilla luciferase reporter (pLucSRE); assay: luciferase reporter assay, SRE promoter; details: MDA-MB-468; 48 hours
Protocol: MDA-MB-468 cells were plated into 12-well plate with 4×10^5 cells per well. The cells were transiently transfected with pLucSRE, pLucTKS3 or STAT3-C with β-gal and then were treated with vehicle, S3I-1756 or S3I-1757 for 48 hours. Then cytosolic extracts of equal total protein were prepared from S3I-1757-treated or -untreated and analyzed for luciferase activity using a TD-20/20 luminometer (Turner Designs, Sunnyvale, Calif., USA) described by us previously.
To this end, MDA-MB-468 cells were transiently co-transfected with a STAT3-responsive promoter-firefly luciferase reporter (pLucTKS3) and 3-gal reporter used to normalize the transfection efficacy. To determine the selectivity of S3I-1757 to suppress STAT3-dependent over STAT3-independent transcriptional activation, MDA-MB-468 cells were also co-transfected with SRE promoter-renilla luciferase reporter (pLucSRE) and β-gal reporter. […] STAT3-C spontaneously dimerizes via disulfide bonds in the absence of tyrosine phosphorylation and is therefore not predicted to be inhibited by a small molecule that is designed to mimic phosphotyrosine binding.

[4] = system: MDA-MB-231 and A-549 cells; assay: wound healing (migration) assay, cells with persistently activated STAT3
Protocol: A549, MDA-MB-231 and H460 cells were seeded at 6×10^5 cells per dish into 60 mm plate and allowed to grow overnight. Wounds were made the following day by scratching the cells with pipette tips (1-10 μL). Cells were treated with vehicle, S3I-1756 or S3I-1757 and allowed to migrate into the scratched area for 16 hours in regular growth medium. The migration of cells was visualized at 10× magnification using a Leica Microscope at time 0 (right before the drug was added) and 16 hours after vehicle, S3I-1756, or S3I-1757 treatments.
The cancer cells were cultured with serum-starved medium for 8 hours before scratching the cells with a pipette tip and treating with increasing concentrations of S3I-1757 for 24 hours. […] Finally, the ability of S3I-1757 to inhibit selectively invasion was determined.

[5] = system: MDA-MB-468, MDA-MB-231 and A-549 cells; assay: Matrigel invasion assay, cells with activated STAT3; details: 48 hours
Protocol: Invasion assay was performed in BD BioCoat™ Matrigel® Invasion Chamber in 24-well plates. A549, MDA-MB-468, MDA-MB-231 and H460 cells were seeded at 25,000 cells/insert in the top chamber over the Matrigel. The bottom chamber contains 20% FBS as the “chemoattractant.” Vehicle, S3I-1756, or S3I-1757 were added the following day. The cells were incubated for 48 hours, after which the cells in the top chamber were carefully removed and the filter membranes containing the invaded cells on the outside of the filter were fixed with methanol, stained with crystal violet and photographed.

[6] = system: MDA-MB-468, MDA-MB-231, H358, A549 cells; assay: MTT assay, cells with persistently activated STAT3; details: 48 hours
Protocol: MTT assay was performed exactly as described by Balasis, et al., Clin. Cancer Res. 2011; 17(9):2852-2862, to determine the effects of S3I-1757 on cell proliferation. Cells were plated in a 96 well tissue culture plate (2000 cells per well) and incubated for 12 hours. After incubation the cells were treated with vehicle S3I-1757 or S3I-1756 for 48 hours. After incubation, freshly prepared MTT (3 mg/ml) in 1×PBS was added to each well and incubated for 3 hours and the plate was read at 570 nm.
Several cell lines were used, some with persistently Y705 phosphorylated STAT3 and others without (FIG. 9A). […] The effects of S3I-1757 on cancer cell anchorage-independent growth were next determined by soft-agar assay.

[7] = MDA-MB-468 transfected with STAT3-C

**Q.** Which “migration (wound healing), H460” value (H460 cells) does the source give for `O=C(O)c1cc(N(Cc2ccc(C3CCCCC3)cc2)C(=O)c2ccc(Oc3ccccc3)cc2)ccc1O` [Compound 20g, 5-(N-(4-Cyclohexylbenzyl)-4-phenoxybenzamido)-2-hydroxybenzoic acid] here?
**A.** Its value is “minimally affected”.

**Q.** And the “activated STAT3 in nuclear extracts capable of binding the STAT3 DNA binding probe” value [1]?
**A.** The value was “contained less activated STAT3 capable of binding the STAT3 DNA binding probe”.

**Q.** And the “apoptosis induction (caspase 3, PARP)” value ([2]; MDA-MB-468, FIG. 11A)?
**A.** Its value is “induced activation of caspase 3 and PARP cleavage”.

**Q.** And the “expression levels of BclxL, cyclin D1 and survivin” value ([2]; MDA-MB-468, FIG. 11A)?
**A.** Its value is “inhibited the expression levels of these proteins”.

**Q.** And the “down regulation of BclxL, cyclin D1, survivin and apoptosis with ectopic STAT3-C” value [2, 7]?
**A.** The value was “ectopic expression of STAT3-C inhibited the ability of S3I-1757 to down regulate”.

**Q.** And the “inhibition of migration and invasion, STAT3-C-transfected cells” value [2, 7]?
**A.** The value was “partially rescued”.

**Q.** And the “proliferation/survival by MTT with STAT3-C” value ([2]; MDA-MB-468 transfected with STAT3-C, FIG. 11B)?
**A.** Its value is “STAT3-C inhibited S3I-1757 from inhibiting the proliferation/survival”.

**Q.** And the “migration and invasion, vector-transfected cells” value ([2]; MDA-MB-468 transfected with vector DNA)?
**A.** Its value is “inhibited the migration and invasion”.

**Q.** And the “SRE-driven luciferase activity (STAT3-independent)” value [3]?
**A.** The value was “minimal effect”.

**Q.** And the “migration (wound healing), MDA-MB-231 and A-549” value [4]?
**A.** The value was “prevented this migration”.

**Q.** And the “invasion, MDA-MB-468, MDA-MB-231 and A-549” value [5]?
**A.** The value was “inhibited invasion”.

**Q.** And the “anchorage-dependent proliferation by MTT, cells that harbor persistently activated STAT3” value [6]?
**A.** The value was “inhibited in a dose dependent manner”.
